Test results published in patent US20240398899A1 (priority 2021, published 2024).

How the values were obtained:
Assay in all cases: Alzheimer's biomarker multiplex analysis, scopolamine-damaged SH-SY5Y
Format in all cases: cell-based, human
Settings in all cases: Scopolamine (4 mM)
[1] = test system: MPO
Procedure: (§1) After overnight incubation as in the previous examples, cells were treated with recombinant lectin protein having SEQ ID NO: 1 at different concentrations ranging from 0.001 μg/ml-1 μg/ml for 24 h for Parkinson disease and 0.01 μg/ml-25 μg/ml for 24 h for Alzheimer's disease. • Parkinson Disease: After 24 h of pre-treatment with recombinant lectin protein having SEQ ID NO: 1, cells were exposed (MPP+) for another 24 h. Cells treated with MPP+Iodide were included as Control. […] The cells treated with Galantamine were included as positive Control.
(§2) The levels of markers were determined by multiplex analysis as: Cell culture supernatants were diluted (1:2) with Calibrator Diluent. 50 μl of standard or sample was added per well. 50 μl of the microparticle cocktail was added to each well of the microplate and covered with a foil plate sealer. The plate was incubated for 2 hours at room temperature on a horizontal orbital microplate shaker. The plate was washed using a magnetic device designed to accommodate a microplate. Washing was done by applying the magnet to the bottom of the microplate, allowing 1 minute before removing the liquid, filling each well with wash buffer (100 μl) and allowing 1 minute before removing the liquid again. 50 μl of diluted Biotin-Antibody Cocktail was added to each well. Covered the plate with a foil plate sealer and incubated for 1 hour at room temperature on the shaker. Repeated the wash step. 50 μl of diluted Streptavidin-PE was added to each well. The plate was securely covered with a foil plate sealer and incubated for 30 minutes at room temperature on the shaker. Repeated the wash step. The microparticles were resuspended by adding 100 μl of Wash Buffer to each well. The plate was incubated for 2 minutes on the shaker and read within 90 minutes using Magpix® multiplex machine. Levels of biomarkers for Parkinson's and Alzheimer's disease were estimated using Magpix® multiplex machine.
(§3) For Alzheimer's disease the percent modulation in each sample was determined as follows: […]

[2] = test system: RAGE
Procedure: as §1, §2, §3

[3] = test system: b-NGF
Procedure: as §1, §2, §3

Question: With `COc1ccc2c3c1O[C@H]1C[C@@H](O)C=C[C@@]31CCN(C)C2` [Galantamine, reference compound] as the molecule, how does the “% Change of Biomarkers markers (wrt Control) MPO” value (shortened to “% Change … (wrt Control) MPO”) ([1]; 1 μM) read?
Answer: −64%

Question: And the “% Change … (wrt Control) MPO” value ([1]; 10 μM)?
Answer: −31.2%

Question: What about the “% Change … (wrt Control) MPO” value ([1]; 100 μM) of the same molecule?
Answer: −45.9%

Question: And the “% Change of Biomarkers markers (wrt Control) RAGE” value (from here on “% Change … (wrt Control) RAGE”) ([2]; 1 μM)?
Answer: 0%

Question: And the “% Change … (wrt Control) RAGE” value ([2]; 10 μM)?
Answer: 0%

Question: And the “% Change … (wrt Control) RAGE” value ([2]; 100 μM)?
Answer: −38.7%

Question: And the “% Change of Biomarkers markers (wrt Control) b-NGF” value (from here on “% Change … (wrt Control) b-NGF”) ([3]; 1 μM)?
Answer: 9.1%

Question: And the “% Change … (wrt Control) b-NGF” value ([3]; 10 μM)?
Answer: 0%

Question: What about the “% Change … (wrt Control) b-NGF” value ([3]; 100 μM) of the same molecule?
Answer: −9%
